Data on eleven compounds can be found in BindingDB's records for PubMed 8226867 (Synaptic Pharmaceutical, 1993).

pKi: −log10 of the molar value.

The target in test [1] is 5-hydroxytryptamine receptor 6 (Homo sapiens, UniProt P50406).
In test [2] the target is 5-hydroxytryptamine receptor 4 (Rattus norvegicus, UniProt Q62758).
The target in test [3] is 5-hydroxytryptamine receptor 4 (Mus musculus, UniProt P97288).

For orientation: pKi means the Ki on a negative log10 scale, so that one unit is a factor of ten.

5-hydroxytryptamine receptor 6, sequence (P50406 whole entry): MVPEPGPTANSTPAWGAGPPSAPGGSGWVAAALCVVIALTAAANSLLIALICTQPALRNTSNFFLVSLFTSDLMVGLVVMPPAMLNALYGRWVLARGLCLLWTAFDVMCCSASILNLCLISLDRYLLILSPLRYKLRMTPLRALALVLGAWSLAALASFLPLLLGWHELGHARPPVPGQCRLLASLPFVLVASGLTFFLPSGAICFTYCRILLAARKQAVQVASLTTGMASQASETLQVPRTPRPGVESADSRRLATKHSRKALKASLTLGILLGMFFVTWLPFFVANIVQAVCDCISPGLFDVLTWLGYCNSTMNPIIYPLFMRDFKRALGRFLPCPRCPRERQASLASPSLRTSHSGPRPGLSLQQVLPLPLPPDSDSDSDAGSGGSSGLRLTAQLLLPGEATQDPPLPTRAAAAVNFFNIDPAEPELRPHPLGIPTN
5-hydroxytryptamine receptor 4 (Rattus norvegicus, UniProt Q62758), sequence (Q62758 whole entry): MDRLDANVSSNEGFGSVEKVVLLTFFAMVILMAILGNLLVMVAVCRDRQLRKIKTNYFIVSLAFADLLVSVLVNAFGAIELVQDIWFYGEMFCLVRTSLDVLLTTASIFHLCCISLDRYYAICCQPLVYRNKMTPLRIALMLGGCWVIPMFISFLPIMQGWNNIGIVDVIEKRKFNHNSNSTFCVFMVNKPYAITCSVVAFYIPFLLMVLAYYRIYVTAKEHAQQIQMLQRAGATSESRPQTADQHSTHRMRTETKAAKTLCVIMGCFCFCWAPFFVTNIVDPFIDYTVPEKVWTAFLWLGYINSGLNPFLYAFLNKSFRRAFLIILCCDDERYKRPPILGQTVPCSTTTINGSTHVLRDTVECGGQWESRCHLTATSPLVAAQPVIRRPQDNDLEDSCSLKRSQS
5-hydroxytryptamine receptor 4 (Mus musculus, UniProt P97288), sequence (P97288 whole entry): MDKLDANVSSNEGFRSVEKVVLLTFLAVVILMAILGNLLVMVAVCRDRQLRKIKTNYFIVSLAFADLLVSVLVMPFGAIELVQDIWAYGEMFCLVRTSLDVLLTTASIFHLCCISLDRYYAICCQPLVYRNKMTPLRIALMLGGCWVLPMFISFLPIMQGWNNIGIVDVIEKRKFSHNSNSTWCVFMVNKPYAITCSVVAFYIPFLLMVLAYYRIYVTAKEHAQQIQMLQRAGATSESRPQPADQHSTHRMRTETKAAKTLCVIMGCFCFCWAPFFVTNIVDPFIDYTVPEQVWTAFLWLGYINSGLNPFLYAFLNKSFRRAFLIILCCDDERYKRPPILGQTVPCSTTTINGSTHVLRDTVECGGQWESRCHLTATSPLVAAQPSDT

As for `Cc1nc2sccn2c(=O)c1CCN1CCC(=C(c2ccc(F)cc2)c2ccc(F)cc2)CC1`, the pKi in test [1] was 7.80. As to `CN1CC(C(=O)N[C@]2(C)O[C@@]3(O)C4CCCN4C(=O)[C@H](Cc4ccccc4)N3C2=O)CC2c3cccc4[nH]cc(c34)CC21` (stereo partly drawn) [7-Methyl-4,6,6a,7,8,9,10,10a-octahydro-indolo[4,3-fg]quinoline-9-carboxylic acid ((2R,5S,10bS)-5-benzyl-10b-hydroxy-2-methyl-3,6-dioxo-octahydro-oxazolo[3,2-a]pyrrolo[2,1-c]pyrazin-2-yl)-amide], the pKi in test [1] is 8.27. `CN1C[C@H](CNC(=O)OCc2ccccc2)C[C@@H]2c3cccc4c3c(cn4C)C[C@H]21` [METERGOLINE] showed a pKi in test [1] of 7.21. Regarding `COc1cc(N)c(Cl)cc1C(=O)NC1CN2CCC1CC2` (stereo unspecified) [ZACOPRIDE,R], the negative logarithm of the Ki (pKi) in test [2] is 6.50.

`CC[C@@H](CO)NC(=O)[C@@H]1C=C2c3cccc4c3c(cn4C)C[C@H]2N(C)C1`: in test [1], the pKi is 6.43. The compound `NCCc1c[nH]c2ccc(C(N)=O)cc12` [[3H]-5-carboxamidotryptamine] had a negative logarithm of the Ki (pKi) in test [1] of 6.60. The compound `c1ccc2c(N3CCNCC3)cccc2c1` had a negative-log Ki (pKi) in test [1] of 6.98. `CCN(CC)C(=O)[C@@H]1C=C2c3cccc4[nH]c(Br)c(c34)C[C@H]2N(C)C1` [LSD,2-Bromo]: the pKi in test [1] was 7.77. For the compound `COc1ccc2[nH]cc(CCN)c2c1` [tryptamine, 5-Methoxy], in test [2], the negative logarithm of the Ki (pKi) is 6.50. As for `CN1C[C@@H](NS(=O)(=O)N(C)C)C[C@@H]2c3cccc4c3c(cn4C)C[C@H]21` [MESULERGINE], the pKi in test [1] is 5.76. Regarding `NCCc1c[nH]c2ccccc12` [1H-indole-3-ethanamine], the negative-log Ki (pKi) in test [3] was < 5.00.
